Assay results as given in article PMC10608985, “Retention Behavior of Anticancer Thiosemicarbazides in Biomimetic Chromatographic Systems and In Silico Calculations” (Molecules, 2023).

Tests used:
[1] = HPLC lipophilicity on cholesterol (Chol) stationary phase; type: physicochemical; settings: pH 7.4; for Log k Chol: Table S3; for log kw Chol: intercept, linear extrapolation to water; for log kw Chol / -S Chol: MeOH/20 mM acetate buffer; for -S Chol: slope of Soczewiński–Wachtmeister equation
Method: (§1) For the evaluation of the compounds the following stationary phases were used: C-18; biomimetic, IAM; cholesterol (Chol); immobilized proteins HSA and AGP. For the lipophilicity determination, MeOH (C-18, Chol) or ACN (IAM) were applied as the organic modifiers. The measurements were performed at pH 7.4 of the mobile phase. The regular changes in the retention of all solutes used as organic modifier content in the mobile phase on three studied stationary phases were found. It is expressed by the Soczewiński–Wachtmeister Equation (1):log k = log kw + S (% organic modifier)(1) where log kw—the intercept; S—the slope of regression curve. […] Log kw as well as S parameters are commonly applied as lipophilicity descriptors.
(§2) HPLC measurements were performed using a liquid chromatograph Knauer (Knauer, Berlin, Germany) with a dual pump, a 20 µL simple injection valve, and a UV–visible detector. The compounds were detected under UV light at 280 nm at room temperature. The retention time of an unretained solute (t0) was determined by the injection of a small amount of citric acid dissolved in water.
Cogent 4 UDC Cholesterol (150 × 2.1 mm, 4 µm) MicroSolv Technology Corporation (Leland, NC, USA) column was used. The mobile phase consisted of different volume mixtures of MeOH as the organic modifier and 20 mM acetate buffer as the aqueous phase, to obtain pH = 7.4. The concentrations of the organic modifier were in the range from 0.3 to 0.8 (v/v) with step 0.05 or 0.1 (Table S3 in the Supplementary Materials). The flow rate was 0.35 mL × min^−1.

[2] = HPLC lipophilicity on IAM (immobilized artificial membrane, phosphatidylcholine) stationary phase; type: physicochemical; settings: pH 7.4; for Log k IAM: Table S2; for log kw IAM: intercept, linear extrapolation to water; for log kw IAM / -S IAM: ACN/20 mM phosphate buffer; for -S IAM: slope of Soczewiński–Wachtmeister equation
Method: as §1, §2
A Rexchrom IAM.PC.DD2 (12 μm, 100 × 4.6 mm, 300 Å) (Regis Technologies, Morton Grove, IL, USA) column was used as the stationary phase. The compounds were dissolved at a concentration of 0.5 mg × mL^−1 in MeOH. The mobile phases consisted of different volume fractions of ACN and 20 mM phosphate buffer; the aqueous phase maintained a pH = 7.4 (0.02 M KH2PO4, Na2HPO4 and 0.15 M KCl). The acetonitrile concentration ranged from 0.05 to 0.4 (v/v), depending on the structure of compound, at 0.05 intervals (Table S2 in the Supplementary Materials). The flow rate was 1 mL × min^−1.

[3] = test system: α1-acid glycoprotein (AGP); assay: HPLC on immobilized AGP column, affinity and % plasma–protein binding; type: in vitro ADME, human; settings: for log K AGP: binding equilibrium constant from calibration curve (Equation 9) of log k AGP; for fraction unbound: human, pH 7.4, % plasma–protein binding converted from log K AGP (Equation 10), read-out: %PPB AGP (converted); for log k AGP: retention on AGP column, 50 mM ammonium acetate pH 7.4 / propan-2-ol 85/15 (v/v)
Method: (§3) Measurements on HSA and AGP immobilized protein columns were carried out with […] isopropanol content in the aqueous mobile phase.
(§4) The standard calibration curve was used to predict log K values (K—binding equilibrium constant) of investigated compounds to HSA and AGP. Next, the log K values were converted into a percentage of plasma–protein binding (%PPB) of the compounds (Table 2). […] It is the lowest for compound 16 with -NO2 substituent, unsubstituted compound 1, and fluorine derivatives 2 and 9. In a group of […] derivatives in the same position of the phenyl ring, the %PPB to AGP increases with the increase in the atomic weight of the halogen atom and the lipophilicity of the molecule.
as §2
(§5) A human serum albumin (HSA) immobilized on the 5 µm silica gel column 100 × 3 mm (Chiralpac) and an α1-acid glycoprotein (AGP) immobilized on the 5 µm silica gel column 100 × 4 mm (Chiralpac) were used. The compounds were dissolved at 0.5 mg/mL concentration in 50% propan-2-ol and ammonium acetate solution (pH = 7.4) mixtures for HSA measurements. The mobile phase was composed of 50 mM ammonium acetate solution (pH = 7.4) and propan-2-ol at 85/15 (v/v) for AGP, respectively. The flow of mobile phases was 0.5 mL×min^−1. Log k values for the selected mobile phase were determined for all studied compounds and standard substances. The % protein plasma binding (% PPB) values were calculated from the calibration curve according to Valko et al..
(§6) Calibration of the protein columns: The column performance check and the calibration check were performed before measurements. The racemic mixture of warfarin was used for their performance evaluation. The following calibration set of drugs was applied: bromazepam, carbamazepine, diclofenac, nicardipine, nizatidine, piroxicam for HSA and bromazepam, chlorpromazine, imipramine, nicardipine, nizatidine, propranolol, and warfarin for AGP. The analytical standards were purchased from Sigma Aldrich Steinhen, Steinheim am Albuch, Germany). The drugs were dissolved at 0.5 mg/mL concentration in 50% propan-2-ol and ammonium acetate solution mixtures (pH = 7.4). The obtained log k values from HPLC were plotted against the log K values (K—binding equilibrium constant, log K—linearized PPB) based on the literature data for plasma–protein binding (%, PPB). The following relationships were obtained: log KHSA = 0.2513 (±0.0984) + 1.0525 (±0.1171) log k HSA(8) n=6, R=0.9761, R^2 = 0.9528, Radj2 = 0.9410, s = 0.1948 log KAGP = 0.1733 (±0.0574) + 0.8902 (±0.0787) log k AGP(9) n=7, R=0.9810, R^2 = 0.9623, Radj2 = 0.9548, s = 0.1113
(§7) Log K values were converted into %PPB using the following equation [15]:(10) %PPB=101×10^logK/1+10^logK

[4] = target: T1, human serum albumin (HSA) (Homo sapiens, UniProt P02768); assay: HPLC on immobilized HSA column, affinity and % plasma–protein binding; type: in vitro ADME; settings: for log K HSA: binding equilibrium constant from calibration curve (Equation 8) of log k HSA; for fraction unbound: human, pH 7.4, % plasma–protein binding converted from log K HSA (Equation 10), read-out: %PPB HSA (converted); for log k HSA: retention on HSA column, 50 mM ammonium acetate pH 7.4 / propan-2-ol 85/15 (v/v)
T1 construct: purchased Chiralpac
T1 sequence (P02768 25-609): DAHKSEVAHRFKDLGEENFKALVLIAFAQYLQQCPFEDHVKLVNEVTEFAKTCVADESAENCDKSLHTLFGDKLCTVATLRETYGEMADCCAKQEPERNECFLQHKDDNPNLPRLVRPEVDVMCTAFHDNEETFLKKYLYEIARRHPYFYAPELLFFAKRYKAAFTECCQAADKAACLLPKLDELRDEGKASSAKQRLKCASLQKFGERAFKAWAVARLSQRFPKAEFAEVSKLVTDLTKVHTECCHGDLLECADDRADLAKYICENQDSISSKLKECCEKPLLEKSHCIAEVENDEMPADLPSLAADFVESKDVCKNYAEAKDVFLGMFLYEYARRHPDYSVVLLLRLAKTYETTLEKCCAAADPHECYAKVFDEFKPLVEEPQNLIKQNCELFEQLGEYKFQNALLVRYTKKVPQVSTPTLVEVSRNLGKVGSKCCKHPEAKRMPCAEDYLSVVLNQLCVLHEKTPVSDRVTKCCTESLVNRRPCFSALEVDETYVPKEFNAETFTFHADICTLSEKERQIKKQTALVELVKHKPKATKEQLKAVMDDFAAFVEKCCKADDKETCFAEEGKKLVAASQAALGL
Method: as §3, §4, §2, §5, §6, §7

[5] = design: method as in Kozyra et al. [31]; settings: MeOH/20 mM acetate buffer, pH 7.4, ref Kozyra et al. [31], cited from earlier work; for log kw C-18: intercept of Soczewiński–Wachtmeister equation (water as mobile phase); for -S C-18: slope of Soczewiński–Wachtmeister equation

Row | SMILES | Log k Chol ([1]; MeOH 0.40 v/v in mobile phase) | Log k Chol ([1]; MeOH 0.50 v/v in mobile phase) | Log k Chol ([1]; MeOH 0.60 v/v in mobile phase) | Log k Chol ([1]; MeOH 0.80 v/v in mobile phase) | log kw Chol [1] | -S Chol [1] | Log k IAM ([2]; ACN 0.15 v/v in mobile phase) | Log k IAM ([2]; ACN 0.20 v/v in mobile phase) | Log k IAM ([2]; ACN 0.25 v/v in mobile phase) | Log k IAM ([2]; ACN 0.30 v/v in mobile phase) | Log k IAM ([2]; ACN 0.35 v/v in mobile phase) | log kw IAM [2] | -S IAM [2] | log K AGP [3] | fraction unbound [3] | log k AGP [3] | log K HSA [4] | log k HSA [4] | log kw C-18 [5] | -S C-18 [5] | other results
1 | O=C(COc1ccccc1)NNC(=S)Nc1ccccc1F [Compound 2] | 0.441 | -0.037 | -0.314 | -1.104 | 1.9241 | 3.7822 | 0.455 | 0.234 | -0.010 | -0.358 | -0.461 | 1.1961 | 4.8953 | 0.3986 | 0.278 | 0.2531 | 1.2775 | 0.9750 | 2.0774 | 4.3603 | Log k Chol ([1]; MeOH 0.30 v/v in mobile phase): 0.744; Log k Chol ([1]; MeOH 0.35 v/v in mobile phase): 0.656; Log k IAM ([2]; ACN 0.05 v/v in mobile phase): 0.968; Log k IAM ([2]; ACN 0.10 v/v in mobile phase): 0.692; fraction unbound [4]: 0.041
2 | O=C(COc1ccccc1)NNC(=S)Nc1ccc(Br)cc1 [Compound 11] | 1.158 | 0.571 | 0.276 | -0.886 | 3.1674 | 5.0251 | 1.141 | 0.792 | 0.453 | 0.004 | -0.111 | 2.1020 | 6.5856 | 0.6344 | 0.18 | 0.518 | 2.0248 | 1.685 | 2.734 | 4.6183 | Log k Chol ([1]; MeOH 0.35 v/v in mobile phase): 1.437; Log k Chol ([1]; MeOH 0.45 v/v in mobile phase): 0.871
3 | O=C(COc1ccccc1)NNC(=S)Nc1ccc(Cl)cc1 [Compound 10] | 1.050 | 0.479 | 0.206 | -0.946 | 2.9842 | 4.8387 | 1.009 | 0.673 | 0.368 | -0.038 | -0.210 | 1.8779 | 6.0976 | 0.5075 | 0.23 | 0.3754 | 1.9333 | 1.5981 | 2.5914 | 4.5132 | Log k Chol ([1]; MeOH 0.30 v/v in mobile phase): 1.475; Log k Chol ([1]; MeOH 0.35 v/v in mobile phase): 1.331; Log k Chol ([1]; MeOH 0.45 v/v in mobile phase): 0.836; Log k Chol ([1]; MeOH 0.70 v/v in mobile phase): -0.396; Log k IAM ([2]; ACN 0.10 v/v in mobile phase): 1.235; fraction unbound [4]: 0.002
4 | O=C(COc1ccccc1)NNC(=S)Nc1cccc(Br)c1 [Compound 7] | 1.284 | 0.720 | 0.347 | -0.987 | 3.4508 | 5.4314 | 1.120 | 0.777 | 0.413 | -0.038 | -0.196 | 2.1389 | 6.8947 | 0.6968 | 0.159 | 0.5881 | 2.2501 | 1.8991 | 2.8451 | 4.8454 | Log k Chol ([1]; MeOH 0.45 v/v in mobile phase): 0.913; Log k Chol ([1]; MeOH 0.70 v/v in mobile phase): -0.309
5 | O=C(COc1ccccc1)NNC(=S)Nc1ccccc1 [Compound 1] | 0.620 | 0.110 | -0.157 | -1.006 | 2.2209 | 4.0307 | 0.284 | 0.085 | -0.142 | -0.518 | -0.490 | 1.0288 | 4.4559 | 0.4018 | 0.277 | 0.2567 | 1.0986 | 0.8050 | 1.7866 | 3.7611 | Log k Chol ([1]; MeOH 0.30 v/v in mobile phase): 0.979; Log k Chol ([1]; MeOH 0.35 v/v in mobile phase): 0.857; Log k Chol ([1]; MeOH 0.45 v/v in mobile phase): 0.440; Log k IAM ([2]; ACN 0.05 v/v in mobile phase): 0.999; Log k IAM ([2]; ACN 0.10 v/v in mobile phase): 0.548; Log k IAM ([2]; ACN 0.40 v/v in mobile phase): -0.556; fraction unbound [4]: 0.065
